One data set deals with β2AR-Gs complexes (Homo sapiens, UniProt P07550). Briefly: 35S-GTPγS binding to heterotrimeric Gs, β2AR in HDL. The conditions noted are these: epinephrine 10 μM stimulation.
Another data set concerns the target β2AR (Homo sapiens, UniProt P07550). Kind of data set: 125I-CYP competition radioligand binding at β2AR in HDL particles.
For data set [1], the target named is endogenously expressed β2AR (Homo sapiens, UniProt P07550). Briefly: GloSensor cAMP generation in HEK293 cells. The conditions noted are these: 30 μM modulator.
Data set [2] concerns the target T1, β1AR (Homo sapiens, UniProt P08588). Kind of data set: EGFR transactivation (EGFR endocytosis BRET) in HEK293 cells stably expressing β1ARs. It counts as cell-based. Here is the method:
HEK293 cells stably expressing β1ARs were transfected with 250 ng of EGFR-RlucII and 1 μg of rGFP-FYVE constructs. The day following transfection, cells were re-seeded onto poly-L-ornithine coated 96-well plates at ˜25,000 cells per well. […] The cell-permeable substrate coelenterazine 400a (final concentrations of 5 μM) was added 3˜6 min before BRET measurements.
On the technique in general: In BRET a luciferase serves as donor, and the signal depends on an acceptor being close.

Data set [3] concerns the target T1, β1AR. Briefly: 125I-CYP competition binding at β1AR-HDL particles (Example 2).
Data set [4] concerns the target T1, β1AR. Briefly: ERK activation assay in HEK293 cells expressing β1ARs. Type of data set: cell-based. The conditions noted are these: for dependency of ERK activation on β-arrestin: β-arrestin1/2 knockout vs wild type HEK293 cells. From the text:
ERK activation assay: HEK293 cells with stable overexpression of FLAG-tagged β1AR or β-arrestin knockout were described previously. Cells were periodically treated with BM Cyclin (Roche) to avoid mycoplasma contamination. […] Cell lysate samples were separated by SDS-PAGE, transferred to PVDF membrane (Bio-Rad) and subjected to immunoblotting with anti-MAPK 1/2 (EMD Millipore) and anti-p44/42 MAPK (Cell Signaling) antibodies. Immunoblots were detected using enhanced chemiluminescence (Thermo Fisher Scientific) and analyzed with ImageJ software. The densitometry values from pERK blots were normalized to respective total ERK blots, and normalized to the maximum response of control group in each experiment.

The target in data set [5] is T1, β1AR. Briefly: GloSensor cAMP assay in HEK293 cells transfected with β1ARs. The conditions noted are these: for activation of cAMP: β-blockers as stimulating ligands. (In general: Cyclic AMP is a second messenger, typically raised through Gs and lowered through Gi signalling.)
Another data set relates to mouse hearts. Kind of data set: Ischemia/reperfusion-induced cell apoptosis in mouse heart (TUNEL). It counts as in vivo. The method, then:
Ischemia reperfusion-induced cell apoptosis in mouse heart: Eight to twelve-week-old C57BL/6J wild-type mice or eight to twenty-seven-week-old αMyHC-Cre:Arrblflox/flox/Arrb2flox/flox mice of both sexes were used. Animals were randomly assigned to, and the researchers were blinded for, treatment groups. […] After 3 days of treatment, cardiac ischemia was produced by the ligation of left anterior descending coronary artery. After 45 min, the ligation was released to allow the blood flow to be restored for 45 min. […] The hearts were then embedded in optimum cutting temperature compound (Sakura Finetek) and snap frozen in liquid nitrogen. TUNEL staining on the cryo-sections were performed with in situ cell death detection kit (Sigma-Aldrich) according to the manufacturer's protocol. Sections were then mounted in ProLon Diamond Antifade Mountant with DAPI (Thermo Fisher Scientific). Images were recorded with Zeiss Axio Observer Z1 confocal microscope with 20× objective. In each heart, sections from different groups (from base to apex of the tissue, apart by 0.5 mm) were stained, and the group with maximum TUNEL-positive cells were used for quantification. At lease 9 images from 3 sections were quantified for each heart. The number of TUNEL-positive cells and the total number of nuclei as determined by DAPI staining were counted using ImageJ software.

The next data set relates to C57BL/6J wild-type mice. Kind of data set: Isoproterenol-induced hemodynamics in mouse heart. The conditions noted are these: 3 days. It counts as in vivo. Here is the method:
Isoproterenol-induced hemodynamic in mouse heart: Eight to twelve-week-old C57BL/6J wild-type mice of both sexes were used. Animal experiments carried out were handled according to approved protocols and animal welfare regulations mandated by the Institutional Animal Care and Use Committee of Duke University Medical Center. […] After treatment, mice were anesthetized with ketamine (100 mg/kg) and xylazine (2.5 mg/kg). After bilateral vagotomy, a 1.4 French (0.46 mm) high fidelity micromanometer catheter (ADInstruments) connected to a pressure transducer (ADInstruments) was inserted into the left ventricle to monitor blood pressure. Basal blood pressure was recorded at steady state after the catheter insertion (2-3 min after insertion). Graded doses of isoproterenol were administered at 45 sec intervals by intravenous injection through a jugular vein. The blood pressure was monitored continuously and recorded at the steady state (35-45 sec after each injection). Data analysis was performed using LabChart 8 software (ADInstruments).

Values joined by “and” are separate entries in the source; they are usually repeats but may differ in a detail not shown here. Identical values can stand only once.

Chain of β2AR (P07550 whole entry): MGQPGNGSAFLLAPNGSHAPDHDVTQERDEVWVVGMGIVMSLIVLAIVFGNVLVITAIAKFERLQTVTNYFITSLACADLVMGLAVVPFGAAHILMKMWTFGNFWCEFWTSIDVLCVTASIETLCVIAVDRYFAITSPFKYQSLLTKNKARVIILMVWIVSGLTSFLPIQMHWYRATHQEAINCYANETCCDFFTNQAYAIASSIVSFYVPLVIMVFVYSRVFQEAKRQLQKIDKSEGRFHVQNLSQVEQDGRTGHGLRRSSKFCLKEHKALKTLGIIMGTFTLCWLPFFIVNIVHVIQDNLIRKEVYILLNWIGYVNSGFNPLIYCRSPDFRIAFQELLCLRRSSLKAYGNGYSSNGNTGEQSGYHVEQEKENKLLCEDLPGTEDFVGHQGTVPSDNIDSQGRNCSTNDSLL
T1 sequence (P08588 whole entry): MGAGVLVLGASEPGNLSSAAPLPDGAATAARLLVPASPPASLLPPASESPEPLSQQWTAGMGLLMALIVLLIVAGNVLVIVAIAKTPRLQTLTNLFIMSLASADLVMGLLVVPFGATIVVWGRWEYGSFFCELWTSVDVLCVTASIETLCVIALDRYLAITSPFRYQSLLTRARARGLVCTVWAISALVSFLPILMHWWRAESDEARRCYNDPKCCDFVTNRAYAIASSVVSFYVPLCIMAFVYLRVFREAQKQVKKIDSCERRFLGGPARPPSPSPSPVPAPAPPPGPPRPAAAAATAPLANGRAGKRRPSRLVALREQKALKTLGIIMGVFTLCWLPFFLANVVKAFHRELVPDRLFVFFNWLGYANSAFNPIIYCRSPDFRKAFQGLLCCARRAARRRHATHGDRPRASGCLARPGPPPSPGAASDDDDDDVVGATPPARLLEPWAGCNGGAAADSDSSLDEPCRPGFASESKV
Chain of endogenously expressed β2AR (P07550 whole entry): as the sequence (P07550 whole entry) above
Chain of β2AR-Gs complexes (P07550 whole entry, one chain of several): as the sequence (P07550 whole entry) above

As to `CC(C)N(C)S(=O)(=O)c1ccc(Sc2ccc(C(N)=O)cc2)c(C(=O)N[C@@H](CC(N)=O)Cc2ccc(C(C)(C)C)cc2)c1` [A9, (R)—N-(4-amino-1-(4-(tert-butyl)phenyl)-4-oxobutan-2-yl)-2-((4-carbamoylphenyl)thio)-5-(N-isopropyl-N-methylsulfamoyl)benzamide], the “effect on agonist-stimulated activation of Gs / 35S-GTPγS binding to Gs” value on β2AR-Gs complexes is on record as “markedly blocks”. In addition, the “PAM activity with agonists including epinephrine” value on β2AR (affinity shifts, 20 μM analog) is recorded as “absolutely no PAM activity”. Moreover, the “Log KT (dissociation constant of PAM for receptor binding)” value at β2AR (carvedilol-bound β2AR) is reported as −5.533. Moreover, the cooperativity with carvedilol entry on β2AR (compared with parent cmpd-6) is listed as “retains its positive cooperativity with carvedilol”. The “modulation of isoproterenol-stimulated cAMP generation” value in data set [1] is “classic NAM”.
For the compound `COc1cc2ncnc(Nc3cccc(Cl)c3)c2cc1OC` [AG1478], the “effect on EGF-induced change in BRET ratio” value at β1AR [2] (10 μM pretreatment) was “blocked”.
As for `COc1ccc(Sc2ccc(S(=O)(=O)N(C)C(C)C)cc2C(=O)N[C@@H](CC(N)=O)Cc2ccc(C(C)(C)C)cc2)cc1` [Cmpd-6, (R)—N-(4-amino-1-(4-(tert-butyl)phenyl)-4-oxobutan-2-yl)-5-(N-isopropyl-N-methylsulfamoyl)-2-((4-methoxyphenyl)thio)benzamide], the “cooperativity with the full agonists epinephrine and norepinephrine” value on β1AR [3] (25 μM Cmpd-6) is reported as “minimal positive cooperativity”. Moreover, the “enhancement of receptor binding affinity of carvedilol for β1ARs” value on β1AR [3] (FIG. 10A) was 7.9 fold and ~8 fold. On β1AR [4] (30 μM Cmpd-6), the “cooperativity on isoproterenol-stimulated ERK activation” value is reported as “no cooperativity”. In addition, on β1AR [5] (30 μM Cmpd-6), the “effect on isoproterenol- or carvedilol-induced cAMP dose response curve” value is “no enhancement”. In the data set on mouse hearts (Cmpd-6 5 mg/kg/day alone, wild type mice), the “TUNEL positive cells in the ischemic zone” value was roughly 10%. Moreover, the “PAM activity on the isoproterenol-induced EGFR transactivation” value at β1AR [2] (30 μM Cmpd-6) is listed as “no PAM activity”. The “potentiation of the inhibitory effect of carvedilol on heart rate and dP/dt max” value with C57BL/6J wild-type mice (Cmpd-6 5 mg/kg/day + carvedilol 1 mg/kg/day) is listed as “only a modest potentiation”.
`C=CCc1ccccc1OCC(O)CNC(C)C` (stereo not shown) [alprenolol]: the “dependency of ERK activation on β-arrestin” value on β1AR [4] was roughly 50%. In addition, the “activation of cAMP” value at β1AR [5] is reported as 20 % of the maximal isoproterenol response.
On to `CC(C)(Cc1c[nH]c2ccccc12)NCC(O)COc1ccccc1C#N` (stereo not shown) [bucindolol], for which the “dependency of ERK activation on β-arrestin” value at β1AR [4] is on record as “independent of β-arrestin”. Also, on β1AR [5], the “activation of cAMP” value is 40 % of the maximal isoproterenol response.
As for `COc1ccccc1OCCNCC(O)COc1cccc2[nH]c3ccccc3c12` (stereo not shown) [carvedilol], in the data set with mouse hearts (5 or 20 mg/kg/day, wild type mice), the “effect on I/R induced apoptosis” value is “inhibited I/R induced apoptosis”. Moreover, the “effect on I/R-induced apoptosis” value in the data set with mouse hearts (low or high dose (1 or 20 mg/kg/day), cardiomyocyte-specific β-arrestin1/2 knockout mice) is listed as “did not reduce”. The “effect on isoproterenol-induced hemodynamics (heart rate, dP/dt max)” value with C57BL/6J wild-type mice (1 mg/kg/day, osmotic pump) was “minimal effect”; with C57BL/6J wild-type mice (higher doses (5, 20 mg/kg/day)) it was “blocked both the heart rate and contractility response”.
With EGF: EGF ligand of the EGFR, the “ligand-induced EGFR endocytosis (change in BRET ratio)” value with β1AR [2] (assay validation) was “robust change in BRET ratio”.

The record behind these values is patent publication US20260069555A1, “Compositions and Methods for Modulating the Effect of Beta-Blocker Activity in a Subject” (Duke University, priority 2021, published 2026).
